pKd: −log10 of the molar value.
Key:
[1] = target: T1, SPs0871 (Streptococcus pyogenes, UniProt A0A0H2UUQ6); assay: MST binding analysis; conditions: for concentration-dependent response by MST: 15.3 nM to 500 µM compound; for concentration-dependent response by MST / pKd: 100 nM SPs0871; for pKd: read-out: KD values calculated by MST analysis
Description: (§1) MST was performed on a Monolith NT.115 instrument using Monolith NT.115 Series, Premium Capillaries, and His-tagged SPs0871 was labeled using the Monolith His-Tag Labeling Kit RED-Tris-NTA 2nd Generation (NanoTemper Technologies GmbH, Munich, Germany). The final concentration of SPs0871 was 100 nM, and the final concentration of the dye was 5 nM. The buffer was PBS-T (PBS, 0.005% Tween 20), 5% DMSO. A range of concentrations of compounds (15.3 nM to 500 µM) was tested.

[2] = target: T1, SPs0871; assay: SPR analysis of binding to immobilized SPs0871 (Biacore T200); conditions: for concentration-dependent response by SPR (derivatives, cross-validation): 3.125–200 µM
Description: The binding of maltotriose and compound derivatives to SPs0871 was assessed using a Biacore T200 instrument (Cytiva, Marlborough, MA, USA). SPs0871 was immobilized at 4300–4700 RU on the surface of a CM5 sensor chip (Cytiva) by the amine-coupling method according to the manufacturer’s instructions. The running buffer was phosphate buffered saline with Tween (PBS, 0.005% Tween 20), 5% DMSO. To measure the interaction of maltotriose with SPs0871, a range of concentrations of maltotriose (0.039–20 µM) were injected at a flow rate of 30 μL min^–1 with a 20 s association time and a 40 s dissociation time. To measure the interaction of compound derivatives with SPs0871, a range of concentrations of compound derivatives (3.125–200 µM) were injected at a flow rate of 30 μL min^–1 with a 20 s association time and a 40 s dissociation time. Data analysis was carried out using BIAevaluation software (Cytiva, version ver3.2.1, https://www.cytivalifesciences.com/ja/jp/support/software/biacore-downloads?_gl=1*18vz87l*_gcl_au*MjA3MjI1ODE4Ni4xNzQyOTU1NzY3*_ga*OTQ5NDM5MTMyLjE3NDI5NTU3Njg.*_ga_CS9H0CZBWW*MTc0NDQ0NjkwMy41LjEuMTc0NDQ0ODAwNC4wLjAuMA.). The KDs of the interactions were calculated from Scatchard plots.

[3] = target: T1, SPs0871; assay: DSF, melting temperature of SPs0871; format: binding
Source text: In the subsequent DSF screening, we measured the Tm value of SPs0871 in the presence of each compound. We also evaluated the structural stabilizing effect of each compound by binding it to SPs0871, which reflected the binding of the compound in the ligand binding pocket and the intramolecular interaction network. We included SPs0871 without small compounds as a negative control in each screening plate. The difference between the Tm value for each compound and the highest negative control Tm value in the same plate was used as the activity value for each compound.
DSF was performed on a CFX Connect Real-Time System (Bio-Rad, Hercules, CA, USA). The buffer was 1 × PBS, 5% DMSO except an experiment to assess the change of Tm value in a sugar concentration-dependent manner (Figure S1), in which DMSO was not added into the buffer. In the initial screening, the final concentration of the compounds was 100 µM and the concentration of SPs0871 was a 2 μM. One thousandth of the sample volume of SYPRO Orange Protein Gel Stain (5000 × concentrated in DMSO; Invitrogen, Waltham, MA, USA) was added, and samples containing 5 × SYPRO Orange were loaded onto 96-well PCR Plates (Bio-Rad) for measurement. The denaturation of protein was observed via fluorescence emitted from SYPRO Orange upon absorption to the exposed hydrophobic surface.

[4] = test system: MalE1; assay: MST analysis of bacterial species specificity; format: binding, L. casei
Source text: Finally, to gain an insight into the specificity of the three compounds for bacterial species, we prepared MalE1 from L. casei as a recombinant protein and used MST to assess the binding of compounds 95,186, 95186b, and 95186c to MalE1.
(§2) The SPs0871 (including mutants) gene fragment encoding amino acids 27–415 was cloned into Escherichia coli expression vector pCold I (for MST) or pCold SUMO, in which the His6-SUMO-tag was introduced into the pCold I vector (Takara, Shiga, Japan). The same process was performed for MalE1 derived from the L. casei gene fragment encoding amino acids 28–410. The recombinant protein was expressed and purified as previously described.
as §1

[5] = test system: S. pyogenes strain JRS4; assay: Growth assay in CDM supplemented with maltotetraose, JRS4; format: cell-based, Streptococcus pyogenes; conditions: for GAS growth: 0.5% maltotetraose, 1% DMSO, OD600
Description: (§3) Bacteria were incubated in a carbohydrate-free chemically defined medium (CDM) supplemented with maltotetraose, which is thought to be taken up only via the SPs0871 pathway. […] Further, we also evaluated the antibacterial effect of 95,186 against SSI-1 strain, which is isolated from a STSS patient.
(§4) JRS4 and SSI-1 were used as GAS strains. The medium used as well as the procedure up to the assay were the same as previously described. […] For SSI-1, an additional 0.1% glucose was added to the CDM medium containing maltotetraose. To confirm the bacteriostatic effect of compound 95,186, the bacterial culture incubated in CDM was inoculated into THY medium to achieve a final OD600 value of 0.01.

[6] = target: T1, SPs0871; assay: SPR screening of direct binding to SPs0871 (Biacore 8K)
Source text: In parallel, we conducted SPR screening to evaluate the direct binding of compounds to SPs0871. We immobilized SPs0871 on a sensor chip, flowed each compound to the chip in sequence, and evaluated the response for each compound. The response derived from maltotriose binding was designated as the positive control, with a relative value 100, and the response derived from the injection of running buffer was designated as the negative control, with a relative value 0. The molecular weight corrected value for each compound was used as the activity value.
Direct binding of compounds to SPs0871 was examined using a Biacore 8 K instrument (Cytiva). SPs0871 was immobilized at 3500–5300 RU on the surface of a CM5 sensor chip (Cytiva) by the amine-coupling method according to the manufacturer’s instructions. The running buffer was PBS-T (PBS, 0.005% Tween 20), 5% DMSO. In the screening, the final concentration of each compound was 100 µM, and samples were injected at a flow rate of 30 μL min^–1 with a 30 s association time. To check the concentration dependency, a range of concentrations of the compounds (3.125–50 µM) were injected at a flow rate of 30 μL min^–1 with a 20 s association time and a 30 s dissociation time. […]

[7] = test system: SPs0871 mutants (E146, K294, W256 mutated to alanine); assay: MST binding to recombinant SPs0871 alanine mutants; parameters: species or system Streptococcus pyogenes
Source text: To assess whether 95,186 competes with the natural ligand maltotriose in binding to SPs0871, we conducted MST analysis in the presence or absence of maltotriose. […] When we performed additional docking calculations using the Glide docking program (Schrodinger, New York, NY, USA) to identify hotspot residues for the compound binding, E146 and K294 were predicted to form hydrogen bonds and W256 was predicted to form van der Waals interactions during compound binding (Fig. 4B,C). We validated these predictions using recombinant SPs0871 mutants in which these residues were mutated to alanine.
as §2
as §1, with “The buffer was PBS-T (PBS, 0.005% Tween 20), 5% DMSO. A range of concentrations of compounds (15.3 nM to 500 µM) was tested.” left out

[8] = test system: SSI-1 strain; assay: Growth assay in CDM medium, SSI-1; format: cell-based, Streptococcus pyogenes; conditions: 100 µM compound, 0.5% maltotetraose plus 0.1% glucose
Description: as §3, §4

T1 sequence (A0A0H2UUQ6 entry or part of it): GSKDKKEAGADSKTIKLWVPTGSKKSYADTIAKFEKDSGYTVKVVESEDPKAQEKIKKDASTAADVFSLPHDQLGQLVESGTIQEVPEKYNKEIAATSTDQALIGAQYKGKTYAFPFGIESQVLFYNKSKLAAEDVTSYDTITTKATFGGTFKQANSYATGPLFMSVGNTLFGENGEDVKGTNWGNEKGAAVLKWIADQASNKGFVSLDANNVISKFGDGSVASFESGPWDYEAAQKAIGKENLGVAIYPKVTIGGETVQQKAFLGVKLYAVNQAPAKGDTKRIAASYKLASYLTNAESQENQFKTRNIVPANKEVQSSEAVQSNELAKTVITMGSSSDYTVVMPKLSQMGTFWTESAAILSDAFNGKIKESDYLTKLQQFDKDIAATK

| concentration-dependent response by MST [1] | Compound | pKd [1] | concentration-dependent response changes by MST with MalE1 [4] | GAS growth ([5]; 100 µM compound) | further results |
| --- | --- | --- | --- | --- | --- |
| no change | Cc1nn2c(-c3cccc(NC(=O)COc4ccccc4)c3)nnc2c2ccccc12 [95186f] |  |  |  |  |
| no change | Cc1ccc(-c2nnc3c4ccccc4c(C)nn23)cc1NC(=O)CN1CCCCC1 [95186a] |  |  |  |  |
|  | maltotriose [reference compound] | 5.21 |  |  | pKd ([2]; maltotriose 0.039–20 µM, calculated from Scatchard plots, read-out: dissociation constant (KD) by SPR): 6.21; increase of the melting temperature of SPs0871 ([3]; DSF, 10 µM maltotriose): 1.2 °C |
| no change | O=C(CN1CCCCC1)Nc1cccc(C(=O)Nc2cccc(C(F)(F)F)c2)c1 [95186h] |  |  |  |  |
| no change | Cc1nn2c(-c3cccc(NC(=O)CSc4nc5ccccc5o4)c3)nnc2c2ccccc12 [95186g] |  |  |  |  |
| no change | Cc1nn2c(-c3cccc(NC(=O)c4ccccc4)c3)nnc2c2ccccc12 [95186e] |  |  |  |  |
| concentration-dependent response change | Cc1nn2c(-c3cccc(NC(=O)c4ccco4)c3)nnc2c2ccccc12 [95186d] |  |  |  | initial optical density at 600 nm (OD600) values ([5]; 100 µM in CDM with maltotetraose): high because of aggregation of the compounds in the medium as well as bacterial growth |

| Compound | concentration-dependent response by MST [1] | pKd [1] | concentration-dependent response changes by MST with MalE1 [4] | GAS growth ([5]; 100 µM compound) | further results |
| --- | --- | --- | --- | --- | --- |
| CCC(=O)Nc1cccc(-c2nnc3c4ccccc4c(C)nn23)c1 [95186c] | concentration-dependent response change | 4.14 | No concentration-dependent response changes were detected | suppressed GAS growth | concentration-dependent response by SPR (derivatives, cross-validation) [2]: observed concentration-dependent responses |
| Cc1nn2c(-c3cccc(NC(=O)CN4CCCCC4)c3)nnc2c2ccccc12 [compound 95186] | showed a concentration-dependent response | 4.35 | No concentration-dependent response changes were detected | suppressed GAS growth | ΔTm at 100 µM ([3]; 100 µM compound, 2 µM SPs0871, hit criterion > 0.4 °C, read-out: DSF activity value (Tm with compound minus highest negative control Tm in the same plate)): 0.6 °C; SPR activity value (molecular weight corrected relative response) ([6]; 100 µM compound, maltotriose response = 100, running buffer = 0, hit criterion ≥ 60): 162; concentration dependence of the binding by SPR ([6]; 3.125–50 µM, three independent experiments): concentration-dependent increase in response was reproducibly observed; MST response in the presence of maltotriose (competition) ([1]; 60 µM maltotriose): concentration-dependent response disappeared; MST response change upon binding to SPs0871 alanine mutants [7]: Only the W256A mutation attenuated the response change upon the binding; growth inhibition potential compared among compounds ([5]; 100 µM compound): highest growth inhibition potential; concentration dependence of growth suppression ([5]; JRS4, maltotetraose medium): concentration dependent above the KD value concentration; bactericidal or bacteriostatic effect ([5]; JRS4 exposed to compound transferred into THY medium, final OD600 0.01): bacteriostatic action; maltodextrin dependent growth of SSI-1 [8]: suppressed the maltodexitrin dependent growth of SSI-1 |
| Cc1nn2c(-c3cccc(NC(=O)CN4CCOCC4)c3)nnc2c2ccccc12 [95186b] | concentration-dependent response change | 4.17 | No concentration-dependent response changes were detected | suppressed GAS growth | concentration-dependent response by SPR (derivatives, cross-validation) [2]: observed concentration-dependent responses |

Source: publication PMC12130509, “Development of a small compound that regulates the function of a maltodextrin-binding protein of Streptococcus pyogenes by multifaceted screenings” (Scientific Reports, 2025)
